Results as given in US20180235221A1 (priority 2015, published 2018).
Like-named read-outs stand apart in the source and are kept apart here.

Tested on: Qol resistant Pyricularia oryzae isolate (1328)
Format: cell-based
Details: single active compound, MTP, 405 nm, 7 days after inoculation

| Compound | Observed efficacy (0.063 ppm) | Observed efficacy (0.25 ppm) | Observed efficacy (0.016 ppm) |
| --- | --- | --- | --- |
| CNC(=O)C(=N/OC)/C(C)=C\COc1ccn(-c2ccc(Cl)cc2)n1 [Compound I-1, (Z,2E)-5-[1-(4-chlorophenyl)pyrazol-3-yl]oxy-2-methoxyimino-N,3-dimethyl-pent-3-enamide] | 1% | 65% | – |
| CNC(=O)C(=N/OC)/C(C)=C\COc1ccn(-c2ccc(Cl)cc2Cl)n1 [Compound I-3, (Z,2E)-5-[1-(2,4-dichlorophenyl)pyrazol-3-yl]oxy-2-methoxyimino-N,3-dimethyl-pent-3-en-amide] | 2% | 54% | – |
| Cn1nnn(-c2cccc(Cl)c2COc2ccn(-c3ccc(Cl)cc3)n2)c1=O [II-1, 1-[3-chloro-2[[1-(4-chlorophenyl)-1H-pyrazol-3-yl]oxymethyl]phenyl]-4-methyl-tetrazol-5-one] | – | – | 0% |
| Cn1nnn(-c2cccc(Br)c2COc2ccn(-c3ccc(Cl)cc3)n2)c1=O [II-2, 1-[3-bromo-2-[[1-(4-chlorophenyl)pyrazol-3-yl]oxymethyl]phenyl]-4-methyl-tetrazol-5-one] | – | – | 2% |
| Cc1cccc(-n2nnn(C)c2=O)c1COc1ccn(-c2ccc(Cl)cc2)n1 [II-3, 1-[2-[[1-(4-chlorophenyl)pyrazol-3-yl]oxymethyl]-3-methyl-phenyl]-4-methyl-tetrazol-5-one] | – | – | 44% |
| Cn1nnn(-c2cccc(F)c2COc2ccn(-c3ccc(Cl)cc3)n2)c1=O [II-4, 1-[2-[[1-(4-chlorophenyl)pyrazol-3-yl]oxymethyl]-3-fluoro-phenyl]-4-methyl-tetrazol-5-one] | 1% | – | – |
| Cn1nnn(-c2cccc(F)c2COc2ccn(-c3ccc(Cl)cc3Cl)n2)c1=O [II-5, 1-[2-[[1-(2,4-dichlorophenyl)pyrazol-3-yl]oxymethyl]-3-fluoro-phenyl]-4-methyl-tetrazol-5-one] | – | 44% | – |
| CC(=NOCc1c(C)cccc1-n1nnn(C)c1=O)c1cccc(C(F)(F)F)c1 [II-11, -methyl-4-[3-methyl-2-[[1-[3-(trifluoromethyl)-phenyl]-ethylideneamino]oxymethyl]phenyl]tetrazol-5-one] | 2% | – | – |
